Measured values reported in patent US20250154169A1, “COMPOUNDS AND METHODS FOR MODULATING SPLICING” (REMIX THERAPEUTICS INC., priority 2021, published 2025).
Structures can show the parent of a compound that is named as a salt. Where two headings read alike, the source gives them in different places.

Tests used:
[1] = system: K562 cells; assay: Cell Titer Glo 2.0 cell viability assay, K562; type: cell-based; conditions: Homo sapiens, 72 hours incubation
Description: Compounds described herein were screened for toxicity in K562 (human chronic myelogenous leukemia) and SH-SY5Y (human neuroblastoma) cells using a Cell Titer Glo 2.0 assay.
• Promega CellTiter-Glo® 2.0 Cell Viability Assay (cat #G9241) • Corning 384-well TC-treated microplates (cat #3570)
Cells were plated at 500 cells/well (K562 cells) in 45 μL of IMDM supplemented with 10% FBS in a 384-well opaque plate. Wells containing only medium were used as a blank control. Test compounds (e.g., compounds of Formula (I) or (II)) were first serially diluted in DMSO then diluted 1:100 with EIDM+10% FBS. The final concentration of DMSO was 0.1% in each well. The cells were incubated for 72 hours at 37° C. and 5% CO2 before assaying with Cell Titer Glo 2.0 reagent.

[2] = system: MYB mRNA; assay: Splicing RT-qPCR assay, MYB canonical (CJ) and alternative (AJ) junction mRNA; type: cell-based, human; conditions: Homo sapiens; for AC50: read-out: MYB AJ (AC50, increase in alternative junction mRNA)
Method in brief: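 Canonical (CJ) and alternative-exon (AJ) junction mRNAs quantified by one-step RT-qPCR in cell lysates, normalized to housekeeping PPIA for A673 and GAPDH or GUSB for K562. Cells were exposed 24 h at 37 °C to 11-point 3-fold compound series from 10 uM final, with DMSO at or below 0.25%.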

[3] = system: Target C; assay: Protein abundance, HiBit-assay system (Promega), Target C; type: cell-based, human; conditions: Table 6; HiBiT-modified K562 cells, 24 hours
Description: Compounds described herein were used to screen for effects on quantitative protein abundance using a HiBit assay system (Promega). Quantitative protein abundance was determined by measuring the protein levels of HiBit-tagged protein targets expressed in cell culture via luminescence using the Nano-Glo HiBiT Lytic Detection System, which uses a split complementation assay format to reconstitute NanoBiT enzyme to generate a luminescent signal. A protein abundance assay was developed such that endogenous protein targets could be modified with the HiBiT peptide tag and their abundance could be assessed after compound treatment. Briefly, K562 cell lines containing a HiBiT-modification were treated with various compounds described herein (e.g., compounds of Formulas (I) or (II)). After treatment for 24 hours, the protein abundance of a specific target was determined by measuring luminescence.
Cells were maintained in EIDM with 10% FBS. Before the assay, cells were diluted with […] growth media (EIDM+1% FBS media) and were seeded in a 384-well plate at a density of 10000 cells/well (for each cell line listed in Table 5). Each compound was prepared as a 10-point 3-fold serial dilution in DMSO with the top dose at a final concentration of 10 μM in the well. Unmodified K562 cells were added at the previously specified density with DMSO to serve as an assay baseline and positive control (PC) and DMSO only with the respective modified cell lines was added to the negative control (NC) columns. Final DMSO concentration was kept at or below 0.25%. Treated cell plates were placed in an incubator at 37° C. with 5% CO2 for 24 hours. After 24 hours, 25 μL of Complete HiBit Lytic reagent was added to each well at room temperature (e.g. one plate requiring 10 mL Lytic Buffer, 100 μL LgBiT Protein, 200 μL Lytic Substrate), shaken for 5 minutes at 600 RPM, then left to sit for 10 minutes for signal to stabilize before reading on a Spark Cyto plate reader (Tecan) with a 500 ms measurement time.
To determine compound effects on protein abundance of each target in Table 6, the percent response for each respective cell line was calculated at each compound concentration as follows:
For the normalized response at each concentration, a four-parameter logistical regression was fit to the data and the response was interpolated at the 50% value to determine a concentration for protein abundance at […] the untreated control.

[4] = 24 h, A673 or K562 cells, 24 hours compound treatment, RT-qPCR
[5] = 24 h, A673 or K562 cells, 24 hours compound treatment, RT-qPCR, read-out: MYB CJ (IC50, decrease in canonical junction mRNA)
[6] = Tables 4A/4B, canonical junction qPCR panel, read-out: MYB (IC50, decrease in CJ mRNA, gene panel)
[7] = A673 or K562 cells, 24 hours compound treatment, RT-qPCR
[8] = A673 or K562 cells, 24 hours compound treatment, RT-qPCR, read-out: MYB CJ (IC50, decrease in canonical junction mRNA)

Row | SMILES | GI50 [1] [nM] | AC50 [2, 4] [nM] | IC50 [2, 5] [nM] | IC50 [3] [nM] | IC50 [2, 6] [nM] | AC50 [2, 7] [nM] | IC50 [2, 8] [nM]
1 | Cc1cn2cc(NC(=O)c3ccc(N4CC[C@@H](N5CCNCC5)C4)c4cn(C)nc34)cc(F)c2n1 [Compound 562, N-{8-fluoro-2-methylimidazo[1,2-a]pyridin-6-yl}-2-methyl-4-[(3R)-3-(piperazin-1-yl)pyrrolidin-1-yl]indazole-7-carboxamide hydrochloride] | 1000 to 10000 | 1000 to 10000 | 1000 to 10000 | > 10000 |  |  | 
2 | Cc1cn2cc(NC(=O)c3ccc(N4CCNCC4)c4cn(C)nc34)cc(F)c2n1 [Compound 143, N-{8-fluoro-2-methylimidazo[1,2-a]pyridin-6-yl}-2-methyl-4-(piperazin-1-yl) indazole-7-carboxamide] | 100 to 1000 |  |  | < 100 | < 100 |  | 
3 | CCn1cc2c(N3CC[C@@H](NC)C3)ccc(C(=O)Nc3cc(Cl)c4nc(C)cn4c3)c2n1 [Compound 556, N-{8-chloro-2-methylimidazo[1,2-a]pyridin-6-yl}-2-ethyl-4-[(3R)-3-(methylamino)pyrrolidin-1-yl]indazole-7-carboxamide] | 100 to 1000 | > 10000 | 1000 to 10000 | 1000 to 10000 |  |  | 
4 | Cc1cn2cc(NC(=O)c3ccc(N4CC5NC5C4)c4cn(C)nc34)cc(F)c2n1 (stereo not drawn) [Compound 563, 4-{3,6-diazabicyclo[3.1.0]hexan-3-yl}-N-{8-fluoro-2-methylimidazo[1,2-a]pyridin-6-yl}-2-methylindazole-7-carboxamide] | 100 to 1000 |  |  | 100 to 1000 |  | < 100 | < 100
5 | Cc1cn2nc(NC(=O)c3ccc(C4CCNCC4)c4ccoc34)cc(C)c2n1 [Compound 119] | 1000 to 10000 | 1000 to 10000 | 1000 to 10000 | > 10000 | 1000 to 10000 |  | 
6 | CCn1cc2c(N3CCC(NC4CC4)C3)cc(F)c(C(=O)Nc3cc(F)c4nc(C)cn4c3)c2n1 (stereo not drawn) [Compound 569, 4-[3-(cyclopropylamino)pyrrolidin-1-yl]-2-ethyl-6-fluoro-N-{8-fluoro-2-methylimidazo[1,2-a]pyridin-6-yl}indazole-7-carboxamide] | 100 to 1000 | < 100 | < 100 | 1000 to 10000 |  |  | 
7 | Cc1cn2cc(NC(=O)c3ccc(N4CCC(NC(C)(C)C)CC4)c4cc(C)oc34)cc(F)c2n1 [Compound 197] | 100 to 1000 | 1000 to 10000 | 1000 to 10000 | > 10000 | 1000 to 10000 |  | 
8 | Cc1cn2cc(NC(=O)c3ccc(N4CCN(C)CC4)c4cc(C)oc34)cc(F)c2n1 [Compound 189] | 100 to 1000 | 100 to 1000 | 100 to 1000 | 1000 to 10000 | 100 to 1000 |  | 
9 | Cc1cn2cc(NC(=O)c3ccc(N4C5CNCC54)c4cn(C)nc34)cc(F)c2n1 (stereo not drawn) [Compound 564, 4-{3,6-diazabicyclo[3.1.0]hexan-6-yl}-N-{8-fluoro-2-methylimidazo[1,2-a]pyridin-6-yl}-2-methylindazole-7-carboxamide] | 100 to 1000 |  |  | 100 to 1000 |  | < 100 | < 100
10 | Cc1cn2cc(NC(=O)c3ccc(N4CCNCC4)c4oc(C)nc34)cc(F)c2n1 [Compound 141] | 100 to 1000 | < 100 | < 100 | 1000 to 10000 | < 100 |  | 
11 | CCC1CN(c2ccc(C(=O)Nc3cc(F)c4nc(C)cn4c3)c3oc(C)cc23)CCN1 (stereo not drawn) [Compound 192] | 100 to 1000 | 100 to 1000 | 100 to 1000 | 1000 to 10000 | 100 to 1000 |  | 
